We go through 2 molecules from patent US20250144186A1, “NOVEL THERAPEUTIC USES OF GARDNERELLA ENDOLYSINS” (priority 2022, published 2025).

The subject of assay [1] is Six Gardnerella strains. The experiment in a line: microbe, parasite or virus in culture. In kind it is cell-based, Gardnerella spp. The procedure: (§1) The final volume of the reaction was 100 µL and the reactions were performed in triplicate in 384-well plates. The OD600 was measured using a microplate reader (Tecan, Grodig, Austria) to generate timepoint 0 h baseline values. The reactions were incubated anaerobically for 24 h, then the OD600 was measured again, and the MIC was measured as the lowest concentration with OD600<0.14. […] This process was repeated for a maximum of 25 rounds. In each round, the input CFU/mL was determined by quantitative plating.
(§2) In parallel, one representative of G. vaginalis (ATCC 14018^T) was passaged 25 times with PM-477 (H2B10).

The subject of assay [2] is passaged G. swidsinskii. The experiment in a line: MIC on strains passaged with MDZ-OH. The following applies: for MIC: Gardnerella swidsinskii, 48 h; for MIC passaged: 48 h incubation. It counts as cell-based, Gardnerella swidsinskii. The method, then:
(§3) The minimum inhibitory concentration (MIC), which is a standard measure of the activity of antimicrobials, was determined according to the Clinical and Laboratory Standards Institute protocol (2018) Methods for Antimicrobial Susceptibility Testing of Anaerobic Bacteria (Carpenter et al., 2018). […] Controls for growth in the absence of antimicrobials were also included. OD600 was recorded by a microplate reader (Tecan, Grodig, Austria) after incubation at 37° C. for 48 h or, for some fast-growing strains, after incubation for 24 h. Absence of growth was defined as OD600≤0.14. […] MIC readout and MBC99.5 spotting were performed after 72 h incubation for H2B10B11. MBC99.5 is the minimum concentration of an antibacterial agent that results in bacterial death of all cells in suspension up to a defined limit of detection, resulting in killing of at least 99.5% of bacteria.
as §1
(§4) The susceptibility of Gardnerella strains before and after 8 to 9-times passaging with sub-MIC concentrations of MZD or MDZ-OH is shown in Table 4 below. All MICs determined after 48 h of incubation.

Assay [3] relates to Gardnerella strains from vaginal swabs of BV patients. The assay is described as follows: MIC and MBC99.5 on 18 in-house BV patient isolates. In kind it is cell-based, Gardnerella spp. The procedure:
as §3, with “H2B10B11.” for “H2B10B11. MBC99.5 is the minimum concentration of an antibacterial agent that results in bacterial death of all cells in suspension up to a defined limit of detection, resulting in killing of at least 99.5% of bacteria.”

The conditions of assay [4]: 0.75% MDZ vaginal gel over 16 weeks, cited from earlier work.
The test system of assay [5] is passaged G. vaginalis. The experiment in a line: MIC on strains passaged with MDZ or MDZ-OH. In kind it is cell-based, Gardnerella vaginalis. The settings on record: for MIC: Gardnerella vaginalis, 48 h; for MIC passaged: 48 h incubation. The procedure: as §3, §1, §4
Assay [6] deals with G. vaginalis (ATCC 14018T). The assay is described as follows: Serial passaging for resistance formation with PM-477. The following applies: G. vaginalis (ATCC 14018T) passaged 25 times with PM-477 (H2B10). It counts as cell-based, Gardnerella vaginalis. The method, then:
as §1, §2

The test system of assay [7] is Gardnerella strains grown as biofilm. The assay is described as follows: MBEC on pre-formed biofilms, summary over ancestor strains. In kind it is cell-based, Gardnerella spp. The following applies: 40-72 h old pre-formed biofilms. The method, then:
Gardnerella spp. (see figures for strain specification) was resuspended in brain heart infusion broth supplemented with 2% (w/v) gelatin, 0.5% yeast extract (w/v), 0.1% starch (w/v) and 0.25% glucose (w/v) (sBHIG). Passaged strains were resuspended in unbuffered NYCB supplemented with 1% glucose (w/v) (sNYCB). The OD600 was set to 0.1 (approx. 10^7-10^8 CFU/mL) and the cell suspension was diluted 1:10 in growth medium as input for biofilm formation. A total of 200 μL of the respective bacterial suspensions was added to 96-well flat bottom plates (tissue-culture treated, Sigma-Aldrich). The biofilms were grown under anaerobic conditions at 37° C. for 40 to 72 hours, depending on the isolate. Subsequently, the supernatant was removed, and the biofilm was treated with antimicrobials dissolved in sBHIG (at pH 5 for treatment with PM-477 (H2B10), and unbuffered for treatment with antibiotics) in 100 μL and incubated anaerobically at 37° C. for another 24 hours. After the treatment, the biofilms were washed twice with 200 μL 1x PBS and dissolved by vigorous pipetting (40x up and down). Serial dilutions of the dissolved cells were spotted on chocolate agar plates. The plates were incubated anaerobically for two to three days and the minimum biofilm eradication concentration (MBEC) of the endolysin or the antibiotics in use were calculated. […]

Converted amounts (≈) assume the structure as drawn. Like-named read-outs stand apart in the source and are kept apart here.

Turning to `Cc1ncc([N+](=O)[O-])n1CCO` [MDZ, metronidazole], the MIC was over 512 µg/mL in assay [1] (Gardnerella, read-out: MIC after 9 rounds of passaging, 4 out of 6 strains, maximal concentration in use); over 512 µg/mL in assay [2] (read-out: MIC passaged, G. swidsinskii (GS 9838-1T) passaged with MDZ-OH, 48 h incubation); over 2050 µg/mL in assay [2] (read-out: MIC passaged, G. swidsinskii (UGent BV 7.1) passaged with MDZ-OH, 48 h incubation); 64 µg/mL (≈ 0.374 mM) in assay [3] (Gardnerella, 72 h, 18 in-house BV patient isolates, read-out: median MIC); over 512 µg/mL in assay [5] (read-out: MIC passaged, G. vaginalis (ATCC 14018T) passaged with sub-MIC MDZ, 48 h incubation); over 2050 µg/mL in assay [5] (read-out: MIC passaged, G. vaginalis (UGent 09.07) passaged 8 times with MDZ-OH, 48 h incubation). For the same molecule, the MIC in assay [5] (read-out: MIC passaged, G. vaginalis (UGent BV50) passaged with MDZ-OH, 48 h incubation) is over 2050 µg/mL. In addition, in assay [1] (six Gardnerella strains before passaging), the “pre-passaging MIC range” value is 8 to 256 µg/mL. Besides, the MBC in assay [3] (Gardnerella, 18 in-house BV patient isolates, read-out: median MBC99.5) stood at 1540 µg/mL (≈ 8.97 mM). In addition, the “number of resistant isolates (MIC>32 μg/mL)” value in assay [3] (panel of 18 isolates from vaginal swabs of BV patients) stood at 10. Moreover, the “probability of lasting cure” value was 34% in assay [4] (12 weeks after end of therapy (week 28)) and 70% in assay [4] (after 16 weeks).

B1: PM-477: genetically engineered recombinant Gardnerella-specific endolysin, amino acid sequence SEQ ID NO: 1, His-tag cleaved off (protein)
chain: SKRGIDVSEWQGDIDFNAVKASGVEFVIIRAGYGIGCKDKWFEQNYRKAKTCGLDVGAYWYSYANSGFEAAEEAQSCVNMLSGKSFEYPVYFDLEEKSQLNRGRAFCDSLITGFCNKLESCGYYAGFYTSLSTANNLVSAHVRNRYALWIAQWNTHCSYQGSYGLWQYSSSGSVPGVAGRVDMDYAYVDYPSIIKNVGLNGYKNGGSYTAPQISSIDEVAREVINGDWGNGNERKQRLTSAGYDYASVQNKVNELLGVKAYRKSVDELAREVIRGTWGNGSTRKQRLTQAGYDYNAVQKRVNELL
modifications: His-tag cleaved off; H2B10
On to B1, for which the MIC passaged in assay [2] (G. swidsinskii (GS 9838-1T) passaged with MDZ-OH) is 0.06 µg/mL; in assay [2] (G. swidsinskii (UGent BV 7.1) passaged with MDZ-OH), 0.06 µg/mL; in assay [5] (G. vaginalis (ATCC 14018T) passaged with sub-MIC MDZ) it was 0.13 µg/mL; in assay [5] (G. vaginalis (UGent 09.07) passaged 8 times with MDZ-OH), 0.25 µg/mL; in assay [5] (G. vaginalis (UGent BV50) passaged with MDZ-OH), 0.25 µg/mL. Besides, the “MIC after 25 rounds of passaging” value in assay [6] was found to be 8 µg/mL. In addition, the “MBEC, range over strains” value in assay [7] was under 2 to 32 µg/mL.
